Reference: patent US5888781A, “Method for increasing the hydrolytic activity of starch hyrdolases” (University of Maryland Baltimore County, priority 1997, dated 1999)

Key:
GA from A. awamori [1] = target: T1, GA from A. awamori (Aspergillus awamori, UniProt P69327); experiment: GA activity assay: maltose hydrolysis in the presence of cosolvents; type: biochemical; conditions: maltose hydrolysis by GA at 45° C.; for Corresponding cosolvent concentration at maximum percent increase in kcat: 0.05M sodium acetate buffer pH 4.5, 20 mM maltose; for kcat: at cosolvent concentration of maximum increase
T1 construct: made in house; host or cells: Saccharomyces cerevisiae
Description: GA was produced in Saccharomyces cerevisiae and obtained, as described by Natarajan et al, Biochem., 35:3050-3058 (1996).
Kinetic assays were performed either at 45° C. or at 60° C., in 0.05M sodium acetate buffer (pH 4.5), using a substrate, i.e., maltose, concentration of 20 mM. The substrate concentration was sufficiently above the Km value so that the measured rate was directly proportional to kcat. The enzyme concentrations used in the reaction mixtures were 35 μg/ml and 3.5 μg/ml for the 45° C. and 60° C. experiments, respectively.
(§1) The cosolvent solutions were prepared from a concentrated cosolvent mixture by dilution to the final concentrations ranging from 0-90% (w/v), into the appropriate reaction buffer solution. The buffer solutions were titrated for pH prior to addition of cosolvent. All of the solutions were equilibrated at 45° C. (or 60° C.) in a water bath, and the reaction was started by the addition of a 25 μl aliquot of enzyme. Reaction aliquots were removed at various times, and the reaction was stopped by the addition of 2.5M Trizma base (pH 7.0). All of the reactions were performed in duplicate. The rates were determined by measuring the concentration of the released glucose by the glucose oxidase method, using the Glucose Oxidase Kit (Sigma), as modified for microtiter plate assays, at OD450 nm (Fox et al, Anal. Biochem., 195:93-96 (1991); and Palcic et al, Carbohydr. Res., 250:87-92 (1993)), and using an EL 340 biokinetics reader (BIOTEK Instruments; Winooski, Vt.).
Glucose standards at each of the various cosolvent concentrations were run parallel to each reaction so that any effect of the cosolvents on the glucose assay could be subtracted out.

GA from A. awamori [2] = target: T1, GA from A. awamori; experiment: Effect of cosolvent solution viscosity on kcat of GA (maltose hydrolysis); type: biochemical; conditions: maltose hydrolysis at 45° C.; for Effect of solution viscosity on kcat (in words): PEG200 viscosities up to 14 cp, PEG8000 up to 18 cp
Description: Kinetic assays were performed either at 45° C. or at 60° C., in 0.05M sodium acetate buffer (pH 4.5), using a substrate, i.e., maltose, concentration of 20 mM. The substrate concentration was sufficiently above the Km value so that the measured rate was directly proportional to kcat.
as §1
All buffers of various cosolvent concentrations were filtered before use. Viscosity and density measurements were performed using an Ostwald Capillary Viscometer at 45° C. The densities of the various buffer solutions were obtained by replicate weighing of one milliliter volumes of buffer.
As discussed above, if product release is the rate-limiting step in the GA mechanism, there should be a dependence of the kcat value on solution viscosity. If a conformational change associated with the product release is limiting the reaction rate, the relationship between kcat and viscosity, μ, should be μ^-δ (Demchenko et al, supra). This relationship is based on the Kramers' theory (Kramers, supra) which postulates that diffusional motion in a random field controls the rate at which the enzyme complex will pass over the activation energy barrier. […] This relationship is based on the theory that the dissociating product must have a certain minimal kinetic energy to escape some characteristic volume in the enzyme active site. Once the product has exited from the characteristic volume, the product has a very low probability of reassociating. If the former relationship is valid, plots of ln(kcat) vs ln(μ) for the various cosolvents should be linear with a slope of -δ, whereas if the latter is true plots of ln(kcat) vs (μ)^2 should be linear with a slope corresponding to -γ.

T1 sequence (P69327 25-640): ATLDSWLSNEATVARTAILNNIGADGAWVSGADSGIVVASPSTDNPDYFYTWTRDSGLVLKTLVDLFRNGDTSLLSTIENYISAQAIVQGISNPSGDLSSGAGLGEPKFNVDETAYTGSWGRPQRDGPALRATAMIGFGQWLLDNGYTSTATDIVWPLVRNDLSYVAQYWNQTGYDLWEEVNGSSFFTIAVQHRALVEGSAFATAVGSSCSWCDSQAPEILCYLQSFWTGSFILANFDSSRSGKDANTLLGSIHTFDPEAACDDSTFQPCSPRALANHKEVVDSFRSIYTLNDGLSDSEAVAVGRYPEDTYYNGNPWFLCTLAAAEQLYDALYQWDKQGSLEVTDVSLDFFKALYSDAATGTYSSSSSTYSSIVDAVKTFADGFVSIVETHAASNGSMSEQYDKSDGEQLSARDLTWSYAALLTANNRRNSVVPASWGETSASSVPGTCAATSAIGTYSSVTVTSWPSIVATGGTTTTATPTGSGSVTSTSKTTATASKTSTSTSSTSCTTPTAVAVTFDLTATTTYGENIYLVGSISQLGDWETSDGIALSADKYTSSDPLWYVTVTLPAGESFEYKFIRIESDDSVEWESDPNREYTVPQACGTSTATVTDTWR

| Compound | Cosolvent concentration of peak (largest) increase in kcat (GA from A. awamori [1]) | Maximum percent increase in kcat over control value without cosolvent (GA from A. awamori [1]) [%] | Corresponding cosolvent concentration at maximum percent increase in kcat (GA from A. awamori [1]) [%] | kcat (GA from A. awamori [1]) [s⁻¹] | Solution viscosity at which GA activity starts to decrease significantly (GA from A. awamori [2]) | Slope of plot of ln(kcat) vs (μ)^2 (GA from A. awamori [2]; FIGS. 4A-4G) | Effect of solution viscosity on kcat (in words) (GA from A. awamori [2]) | Effect of cosolvent on kcat (in words) (GA from A. awamori [1]; FIGS. 1A-1G) |
| --- | --- | --- | --- | --- | --- | --- | --- | --- |
| OCCO [EG, ethylene glycol] | around 50 % (w/v) | 32 | 50 | 12.4 | around 3.5 cp | -0.06 | substantially decreased kcat | – |
| OCC(O)CO [Glycerol, glycerol, reference compound] | – | 11 | 1.0 | 10.4 | around 3.5 cp | – | substantially decreased kcat | only a minor increase in kcat |
